From publication PMC10112521, “High-throughput AR dimerization assay identifies androgen disrupting chemicals and metabolites” (Frontiers in Toxicology, 2023)
Where two headings read alike, the source gives them in different places.

Key:
[1] = tested on: AR; set-up: method as in Kleinstreuer et al., 2017; conditions: 2017, cited from earlier work; for Agonist reference: AR agonist reference class ref Kleinstreuer et al.; for Antagonist reference: AR antagonist reference class ref Kleinstreuer et al.
[2] = tested on: AR2 cells (HepG2-AR2); test: Alamar Blue (resazurin) post hoc cell viability / cytotoxicity assay in AR2 cells; conditions: spid Viability, sheet antagonist_fits; for hill_tp (Hill model top): 0 where win_model is Constant
Procedure: For antagonist mode and cytotoxicity data, well-level normalized response (resp) was calculated as: resp=100 * RLU−bval/pval−bval where pval is the median RLU value of the MEC positive control wells (minimum four wells).

[3] = molecular target: T1, human AR (Homo sapiens, UniProt P10275); test: AR2 assay, agonist mode: ligand-dependent AR homodimerization (NanoBiT luciferase complementation) in stable HepG2-AR2 cells; assay type: cell-based; conditions: sheet agonist_fits; for hill_tp: Hill model top (efficacy), 0 given where win_model is Constant; for max_med: maximum median response; for win_model: winning concentration-response model (Constant, Hill, Gain-Loss);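 for hill tp: Log2 fold change of luminescence over DMSO vehicle wells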;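 for max med: Log2 fold change of luminescence over DMSO vehicle wells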
T1 sequence (P10275 1-920) 1: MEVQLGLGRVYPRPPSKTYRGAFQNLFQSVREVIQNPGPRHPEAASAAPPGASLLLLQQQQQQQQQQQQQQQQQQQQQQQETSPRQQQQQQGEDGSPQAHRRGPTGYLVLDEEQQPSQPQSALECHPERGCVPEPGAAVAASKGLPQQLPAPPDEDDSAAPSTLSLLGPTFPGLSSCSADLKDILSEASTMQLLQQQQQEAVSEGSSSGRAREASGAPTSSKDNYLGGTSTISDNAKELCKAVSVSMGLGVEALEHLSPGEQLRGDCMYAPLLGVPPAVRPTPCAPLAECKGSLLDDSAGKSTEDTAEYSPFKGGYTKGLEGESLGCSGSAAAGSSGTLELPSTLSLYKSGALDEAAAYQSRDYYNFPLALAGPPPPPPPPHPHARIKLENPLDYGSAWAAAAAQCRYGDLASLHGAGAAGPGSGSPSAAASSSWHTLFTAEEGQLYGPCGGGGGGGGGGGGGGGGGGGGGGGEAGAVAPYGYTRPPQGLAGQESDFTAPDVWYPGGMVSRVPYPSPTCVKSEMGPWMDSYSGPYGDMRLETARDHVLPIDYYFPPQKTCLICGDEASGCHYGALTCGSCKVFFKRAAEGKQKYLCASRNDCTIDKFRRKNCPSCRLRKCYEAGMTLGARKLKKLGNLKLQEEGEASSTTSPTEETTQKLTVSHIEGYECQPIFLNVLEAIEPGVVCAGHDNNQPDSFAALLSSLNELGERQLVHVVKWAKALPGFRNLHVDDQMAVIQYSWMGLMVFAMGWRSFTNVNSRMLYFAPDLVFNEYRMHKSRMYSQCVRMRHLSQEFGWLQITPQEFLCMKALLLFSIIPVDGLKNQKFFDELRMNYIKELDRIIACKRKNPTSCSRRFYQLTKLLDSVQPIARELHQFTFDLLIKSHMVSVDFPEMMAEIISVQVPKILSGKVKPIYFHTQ
T1 sequence (P10275 1-920) 2: T1 sequence (P10275 1-920) 1

[4] = molecular target: T1, human AR; test: AR2 assay, antagonist mode: disruption of R1881 (10 nM)-induced AR homodimerization in HepG2-AR2 cells; assay type: cell-based; conditions: spid AR_antagonist, sheet antagonist_fits; for hill_gw (Hill model slope) / hill_tp (Hill model top): 0 where win_model is Constant

Compound | Agonist reference [1] | Agonist reference ([1]; Supplementary Table S1) | max_med (maximum median response) [2] | hill_tp (Hill model top) [2] | Antagonist reference [1] | Antagonist reference ([1]; Supplementary Table S1) | hill_tp [3] | max_med [3] | win_model [3] | max_med (maximum median response) [4] | win_model (winning concentration-response model) [4] | hill_gw (Hill model slope) [4] | hill_tp (Hill model top) [4]
C#C[C@]1(O)CC[C@H]2[C@@H]3CCC4=CC(=O)CC[C@@H]4[C@H]3CC[C@@]21CC [Levonorgestrel] | Strong | Strong | 19.7477 | 15.1748 | – | – | – | – | – | – | – | – | –
CON(C)C(=O)Nc1ccc(Cl)c(Cl)c1 [Linuron] | – | – | 8.62 | 20.739 | Moderate | Moderate | – | – | – | – | – | – | –
CCOC(=O)CC(SP(=S)(OC)OC)C(=O)OCC (stereo not shown) [Malathion] | – | – | 9.605 | 0 | – | – | 0 | 0.05987 | Constant | 33.4262 | Hill | 0.997 | 41.649
CNC(=O)ON=C(C)SC [Methomyl] | – | – | 19.3855 | 17.5917 | Inactive | – | – | – | – | – | – | – | –
COc1ccc(C(c2ccc(OC)cc2)C(Cl)(Cl)Cl)cc1 [Methoxychlor] | – | – | 4.672 | 0 | Weak | Weak | – | – | – | – | – | – | –
CC1(C)NC(=O)N(c2ccc([N+](=O)[O-])c(C(F)(F)F)c2)C1=O [Nilutamide] | – | Inactive | 8.678 | 5.9263 | – | Moderate | – | – | – | – | – | – | –
C#C[C@]1(O)CC[C@H]2[C@@H]3CCC4=CC(=O)CC[C@@H]4[C@H]3CC[C@@]21C [Norethindrone] | Strong | Strong | 2.971 | 0 | – | – | – | – | – | – | – | – | –
CNC(=O)O/N=C(\SC)C(=O)N(C)C [Oxamyl] | – | – | 14.6316 | 13.892 | – | – | 0 | 0.09886 | Constant | 4.35 | Constant | 0 | 0
CCCN(CCOc1c(Cl)cc(Cl)cc1Cl)C(=O)n1ccnc1 [Prochloraz] | Inactive | – | 76.2192 | 81.7308 | Moderate | Moderate | – | – | – | – | – | – | –
CC(=O)S[C@@H]1CC2=CC(=O)CC[C@]2(C)[C@H]2CC[C@@]3(C)[C@@H](CC[C@@]34CCC(=O)O4)[C@H]12 [Spironolactone] | – | – | 26.4305 | – | Strong | Strong | – | – | – | – | – | – | –
CC/C(=C(\c1ccccc1)c1ccc(OCCN(C)C)cc1)c1ccccc1 [Tamoxifen] | Inactive | – | 41.7162 | 97.2082 | – | – | – | – | – | – | – | – | –
